This assay relates to cholesterol absorption (serum 3H-cholesterol). The experiment in a line: In Vivo Assay of Hypolipidemic Agents using the Rat Cholesterol Absorption Model. The note with it: peroral; for % inhibition at 10 mg/kg: 10 mg/kg (footnote 1); for % inhibition at 10 mg/kg / % inhibition at 5 mg/kg: serum 3H-cholesterol vs vehicle control; for inhibition in vivo at 1 mg/kg: po, serum 3H-cholesterol 3 h after cholesterol dose, vs vehicle control; for % inhibition at 5 mg/kg: 5 mg/kg (footnote 3). Also on record: species or system Sprague-Dawley rats. How it is done: In Vivo Assay of Hypolipidemic Agents using the Rat Cholesterol Absorption Model. This model is based on models described by Burnett et al (2002), Bioorg. Med. Chem. Lett. 2002 Feb. 11;12(3):315-8 and J. Lipid Res. 1999 October;40(10):1747-57. Female Sprague-Dawley rats weighing 150-250 g are separated into groups of […] and fasted overnight. The animals (4-6/group) are dosed perorally with 300 μL test compounds in olive oil or suitable vehicle. Thirty minutes later, 3-5 microCuries ^3H-cholesterol per rat are delivered perorally in 300 μL olive oil. After three hours, 200 μL serum is collected, vortexed with scintillation fluid, and measured for radioactivity in a scintillation counter. Percent inhibition is defined as 100*(1−Ctest/Cctrl), where Ctest and Cctl refer to ^3H levels in serum for the test compound and for the vehicle only control, respectively. Percent inhibition values are reported for a fixed dose. The ED50 is the dose at which the half-maximal effect on serum ^3H levels is observed for a given test compound.
Representative compounds of the invention were tested in the Rat Cholesterol Absorption model above.

In general, inhibition in vivo refers to the percentage by which the read-out fell short of the control.

Turning to `O=C1[C@H](CC[C@H](O)c2ccc(F)cc2)[C@@H](c2ccc(-c3ccccc3)cc2)N1c1ccc(F)cc1` [Example 3, (3R,4S)-4-Biphenyl-4-yl-1-(4-fluorophenyl)-3-[(3S)-3-(4-fluorophenyl)-3-hydroxypropyl]azetidin-2-one], the “% inhibition at 10 mg/kg” value was 15^1%.
`COc1cccc(-c2ccc([C@@H]3[C@@H](CC[C@H](O)c4ccc(F)cc4)C(=O)N3c3ccc(F)cc3)cc2)c1` [Example 12, (3R,4S)-1-(4-fluorophenyl)-3-[(3S)-3-(4-fluorophenyl)-3-hydroxypropyl]-4-(3′-methoxybiphenyl-4-yl)azetidin-2-one] yielded an inhibition in vivo at 1 mg/kg of 70%.
The same measure, in the same setting: to `O=Cc1cccc(-c2ccc([C@@H]3[C@@H](CC[C@H](O)c4ccc(F)cc4)C(=O)N3c3ccc(F)cc3)cc2)c1` [Example 13, 4′-{(2S,3R)-1-(4-fluorophenyl)-3-[(3S)-3-(4-fluorophenyl)-3-hydroxypropyl]-4-oxoazetidin-2-yl}biphenyl-3-carbaldehyde] belongs 70%.
Consider `N#Cc1cccc(-c2ccc([C@@H]3[C@@H](CC[C@H](O)c4ccc(F)cc4)C(=O)N3c3ccc(F)cc3)cc2)c1` [Example 14, 4′-{(2S,3R)-1-(4-fluorophenyl)-3-[(3S)-3-(4-fluorophenyl)-3-hydroxypropyl]-4-oxoazetidin-2-yl}biphenyl-3-carbonitrile], for which the “% inhibition at 5 mg/kg” value is given as 32^3%.
For the compound `CN(C)S(=O)(=O)c1ccc(-c2ccc([C@@H]3[C@@H](CC[C@H](O)c4ccc(F)cc4)C(=O)N3c3ccc(F)cc3)cc2)cc1` [Example 15, 4′-{(2S,3R)-1-(4-fluorophenyl)-3-[(3S)-3-(4-fluorophenyl)-3-hydroxypropyl]-4-oxoazetidin-2-yl}biphenyl-N,N-dimethylbiphenyl-4-sulfonamide], testing at 1 mg/kg gave an inhibition in vivo of 8%.
`O=C1[C@H](CC[C@H](O)c2ccc(F)cc2)[C@@H](c2ccc(-c3cccc(CO)c3)cc2)N1c1ccc(F)cc1` [Example 16, (3R,4S)-1-(4-Fluorophenyl)-3-[(3S)-3-(4-fluorophenyl)-3-hydroxypropyl]-4-(3′-(hydroxymethyl)biphenyl-4-yl)azetidin-2-one] had an inhibition in vivo at 1 mg/kg of 72%.
The same measure, in the same setting: to `CN(C)c1ccc(-c2ccc([C@@H]3[C@@H](CC[C@H](O)c4ccc(F)cc4)C(=O)N3c3ccc(F)cc3)cc2)cc1` [Example 17, (3R,4S)-4-[4′(dimethylamino)biphenyl-4-yl]-1-(4-fluorophenyl)-3-[(3S)-3-(4-fluorophenyl)-3-hydroxypropyl]azetidin-2-one] belongs 43%; to `O=C1[C@H](CC[C@H](O)c2ccc(F)cc2)[C@@H](c2ccc(-c3ccc(CO)cc3)cc2)N1c1ccc(F)cc1` [Example 18], 48%; to `O=C1[C@H](CC[C@H](O)c2ccc(F)cc2)[C@@H](c2ccc(-c3cc(O)ccc3Br)cc2)N1c1ccc(F)cc1` [Example 19, (3R,4S)-4-(2′-bromo-5′-hydroxybiphenyl-4-yl)-1-(4-fluorophenyl)-3-[(3S)-3-(4-fluorophenyl)-3-hydroxypropyl]azetidin-2-one], 66%.
Still for that read-out and setting: to `O=C(O)[C@@H]1O[C@H](Oc2cccc(-c3ccc([C@@H]4[C@@H](CC[C@H](O)c5ccc(F)cc5)C(=O)N4c4ccc(F)cc4)cc3)c2)[C@@H](O)[C@H](O)[C@H]1O` [Example 20, 4′-{(2S,3R)-1-(4-fluorophenyl)-3-[(3S)-3-(4-fluorophenyl)-3-hydroxypropyl]-4-oxoazetidin-2-yl}biphenyl-3-yl β-L-glucopyranosiduronic Acid] belongs 59%; to `O=C(O)c1cccc(-c2ccc([C@@H]3[C@@H](CC[C@H](O)c4ccc(F)cc4)C(=O)N3c3ccc(F)cc3)cc2)c1` [Example 21, 4′-{(2S,3R)-1-(4-fluorophenyl)-3-[(3S)-3-(4-fluorophenyl)-3-hydroxypropyl]-4-oxoazetidin-2-yl]biphenyl-3-carboxylic acid], 68%; to `O=C(O)c1ccc(-c2ccc([C@@H]3[C@@H](CC[C@H](O)c4ccc(F)cc4)C(=O)N3c3ccc(F)cc3)cc2)cc1` [Example 22, 4′-{(2S,3R)-1-(4-fluorophenyl)3-[(3S)-3-(4-fluorophenyl)-3-hydroxypropyl]-4-oxoazetidin-2-yl]biphenyl-4-carboxylic acid], 52%.
As to `O=C1[C@H](CC[C@H](O)c2ccc(F)cc2)[C@@H](c2ccc(-c3cccc([N+](=O)[O-])c3)cc2)N1c1ccc(F)cc1` [Example 23, (3R,4S)-1-(4-fluorophenyl)-3-[(3S)-3-(4-fluorophenyl)-3-hydroxypropyl]-4-(3′-nitrobiphenyl-4-yl)azetidin-2-one], the “% inhibition at 10 mg/kg” value is 54^1%.
`CC(=O)Nc1cccc(-c2ccc([C@@H]3[C@@H](CC[C@H](O)c4ccc(F)cc4)C(=O)N3c3ccc(F)cc3)cc2)c1` [Example 26, N-(4′-{(2S,3R)-1-(4-fluorophenyl)-3-[(3S)-3-(4-fluorophenyl)-3-hydroxypropyl]-4-oxoazetidin-2-yl}biphenyl-3-yl)acetamide]: the “% inhibition at 10 mg/kg” value is on record as 76^1%.
In turn, `Nc1ccc(-c2ccc([C@@H]3[C@@H](CC[C@H](O)c4ccc(F)cc4)C(=O)N3c3ccc(F)cc3)cc2)cc1` [Example 28, (3R,4S)-4-(4′-aminobiphenyl-4-yl)-1-(4-fluorophenyl)-3-[(3S)-3-(4-fluorophenyl)-3-hydroxypropyl]azetidin-2-one] displayed an inhibition in vivo at 1 mg/kg of 56%.
With `O=C1[C@H](CC[C@H](O)c2ccc(F)cc2)[C@@H](c2ccc(-c3cccc(O)c3)cc2O)N1c1ccccc1` [Example 42, (3R,4S)-4-(3,3′-Dihydroxybiphenyl-4-yl)-3-[(3S)-3-(4-fluorophenyl)-3-hydroxypropyl]-1-phenylazetidin-2-one], the inhibition in vivo at 1 mg/kg is 87%.
Take `O=C1[C@H](CC[C@H](O)c2ccc(F)cc2)[C@@H](c2cccc(-c3cccc(O)c3)c2)N1c1ccc(F)cc1` [Example 44, (3R,4S)-1-(4-fluorophenyl)-3-[(3S)-3-(4-fluorophenyl)-3-hydroxypropyl]-4-(3′-hydroxybiphenyl-3-yl)azetidin-2-one]: the inhibition in vivo at 1 mg/kg was 24%.
On the same count and under the same terms, the result for `O=C1[C@H](CC[C@H](O)c2ccc(F)cc2)[C@@H](c2ccc(Br)cc2)N1c1ccccc1` [Example 46, (3R,4S)-4-(4-Bromophenyl)-3-[(3S)-3-(4-fluorophenyl)-3-hydroxypropyl]-1-phenylazetidin-2-one] reads 30%; that for `O=C1[C@H](CC[C@H](O)c2ccc(F)cc2)[C@@H](c2ccc(-c3cccc(O)c3)cn2)N1c1ccccc1` [Example 49, (3R,4S)-3-[(3S)-3-(4-Fluorophenyl)-3-hydroxypropyl]-4-[5-(3-hydroxyphenyl)pyridin-2-yl]-1-phenylazetidin-2-one], 30%.
Still for that read-out and setting: to `O=C1[C@H](CC[C@H](O)c2ccc(F)cc2)[C@@H](c2ccc(-c3cccc(O)c3)s2)N1c1ccccc1` [Example 50, (3R,4S)-3-[(3S)-3-(4-Fluorophenyl)-3-hydroxypropyl]-4-[5-(3-hydroxyphenyl)-2-thienyl]-1-phenylazetidin-2-one] belongs 27%.
`O=C1[C@H](CC[C@H](O)c2ccc(F)cc2)[C@@H](c2ccc(-c3ccc(O)cc3)s2)N1c1ccccc1` [Example 51, (3R,4S)-3-[(3S)-3-(4-Fluorophenyl)-3-hydroxypropyl]-4-[5-(4-hydroxyphenyl)-2-thienyl]-1-phenylazetidin-2-one] had an inhibition in vivo at 1 mg/kg of 39%.
In the case of `O=C1[C@H](CCC(O)c2ccc(F)cc2)[C@@H](c2ccc(-c3cccc(S(=O)(=O)O)c3)cc2O)N1c1ccccc1` (stereo partly drawn) [Example 53, Sodium 4′-{(2S,3R)-3-[(3S/R)-3-(4-fluorophenyl)-3-hydroxypropyl]-4-oxo-1-phenylazetidin-2-yl}-3′-hydroxybiphenyl-3-sulfonate], 1 mg/kg produced 78% inhibition in vivo.
Still for that read-out and setting: to `O=C1[C@H](CC[C@H](O)c2ccc(F)cc2)[C@@H](c2ccc(-c3cccc(P(=O)(O)O)c3)cc2)N1c1ccccc1` [Example 56, (4′-{(2S,3R)-3-[(3S)-3-(4-Fluorophenyl)-3-hydroxypropyl]-4-oxo-1-phenylazetidin-2-yl}biphenyl-3-yl)phosphonic acid] belongs 59%.
Same read-out and setting: to `O=C1[C@H](CC[C@H](O)c2ccc(F)cc2)[C@@H](c2ccc(-c3cccc(O)c3)cc2)N1c1ccccc1` [Example 57, (3R,4S)-3-[(3S)-3-(4-Fluorophenyl)-3-hydroxypropyl]-4-(3′-hydroxybiphenyl-4-yl)-1-phenylazetidin-2-one] belongs 73%; to `O=C1[C@H](CC[C@H](O)c2ccc(F)cc2)[C@@H](c2ccc(-c3cccc(B(O)O)c3)cc2)N1c1ccccc1` [Example 59, (4′-{(2S,3R)-3-[(3S)-3-(4-Fluorophenyl)-3-hydroxypropyl]-4-oxo-1-phenylazetidin-2-yl}biphenyl-3-yl)boronic acid], 70%.
Consider `O=C1[C@H](CC[C@H](O)c2ccc(F)cc2)[C@@H](c2ccc(-c3cccc(P(=O)(O)O)c3)cc2O)N1c1ccccc1` [Example 61, (4′-{(2S,3R)-3-[(3S)-3-(4-Fluorophenyl)-3-hydroxypropyl]-4-oxo-1-phenylazetidin-2-yl}-3′-hydroxybiphenyl-3-yl)phosphonic Acid], for which the “% inhibition at 5 mg/kg” value is recorded as 58^3%.

Source of the values: patent US7320972B2, “4-Biarylyl-1-phenylazetidin-2-ones” (Microbia, Inc., priority 2003, dated 2008).
